Data taken from ChEMBL document CHEMBL1141314, “SAR index: quantifying the nature of structure-activity relationships” (J Med Chem, 2007).

Test: Inhibition of ribonuclease A

| Structure (SMILES) | Ki |
| --- | --- |
| Nc1ncnc2c1ncn2[C@@H]1O[C@H](COP(=O)(O)OP(=O)(O)O[C@H]2C[C@H](n3ccc(=O)[nH]c3=O)O[C@@H]2COP(=O)(O)O)[C@@H](OP(=O)(O)O)[C@H]1O | 0.027 µM |
| Nc1ncnc2c1ncn2[C@@H]1O[C@H](COP(=O)(O)OP(=O)(O)OC2CC(n3ccc(=O)[nH]c3=O)OC2CO)[C@@H](O)[C@H]1O (some centres not stated) | 11.3 µM |
